Data taken from patent publication US8853258B2, “C-linked hydroxamic acid derivatives useful as antibacterial agents” (Pfizer Inc., priority 2009, dated 2014).
Converted amounts (≈) assume the structure as drawn. Like-named read-outs stand apart in the source and are kept apart here.

Columns and labels:
[1] = system: Klebsiella pneumoniae: Ciprofloxacin-resistant isolate, ESBL, clinical isolate (KP-3700); assay: MIC determination (CLSI), KP-3700; format: cell-based
Method in brief: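 Strain KP-3700, a clinical isolate producing extended-spectrum β-lactamases and resistant to ciprofloxacin, was tested. Minimum inhibitory concentrations determined via CLSI dilution methodology (M7-A7; M100-S18).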

[2] = system: Acinetobacter baumanii/haemolyticus: Multidrug-resistant clinical isolate (AB-3167); assay: MIC determination (CLSI), AB-3167; format: cell-based; conditions: for MIC: Acinetobacter baumannii
Method in brief: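 Multidrug-resistant clinical isolate AB-3167 (A. baumannii/haemolyticus) tested for minimum inhibitory concentration following CLSI dilution susceptibility standards M7-A7 and M100-S18.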

[3] = system: Pseudomonas aeruginosa UI-18: Wild-type (PA-7); assay: MIC determination (CLSI), PA-7; format: cell-based; conditions: for MIC: Pseudomonas aeruginosa
Method in brief: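 Wild-type P. aeruginosa UI-18 tested for minimum inhibitory concentration. Broth/agar dilution following CLSI standards (M7-A7, M100-S18).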

[4] = system: Escherichia coli EC-1: VOGEL, mouse virulent; assay: MIC determination (CLSI), EC-1; format: cell-based; conditions: for MIC: Escherichia coli
Method in brief: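 E. coli Vogel, a mouse-virulent strain (EC-1), was tested. MICs were set by dilution susceptibility testing per CLSI standards M7-A7/M100-S18.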

[5] = target: Pseudomonas aeruginosa LpxC enzyme (Pseudomonas aeruginosa (strain ATCC 15692 / DSM 22644 / CIP 104116 / JCM 14847 / LMG 12228 / 1C / PRS 101 / PAO1), UniProt P47205); assay: IC50 Assay, LpxC Enzyme from P. aeruginosa (PA LpxC Enzyme IC50); format: biochemical
Method: In order to assess the compounds biological activity, selected in-vitro assays were conducted on selected compounds. One of the assays measured the compounds ability to disrupt the synthesis of lipopolysaccharide, LPS, which is a component of the outer membrane of Gram-negative bacteria. Disruption of this synthesis is lethal to the bacteria. The assay determined the compound's ability to inhibit LpxC, which is the first enzyme in the biosynthetic pathway for LPS (measured as IC50). Additionally, MICs (minimal inhibitory concentrations) were determined for several bacteria. The specific protocols are described below:
A) IC50 Assay, LpxC Enzyme from P. aeruginosa (Labled as PA LpxC Enzyme IC50
At the end of 1 hour, 5 ul of 1N HCl was added to stop the enzyme reaction; the plates were centrifuged, and then processed with the BioTrove Rapidfire HTMS Mass Spectrometry System. A no-enzyme control was used in calculating the IC50 values from the percent conversion values.

[6] = Acinetobacter baumanii/haemolyticus AB-3167
[7] = Pseudomonas aeruginosa UI-18 (PA-7)
[8] = P. aeruginosa LpxC enzyme, read-out: PA LpxC enzyeme IC50
[9] = Table 3, read-out: PA LpxC enzyeme IC^50
[10] = Acinetobacter baumanii/haemolyticus multidrug-resistant clinical isolate AB-3167
[11] = Pseudomonas aeruginosa UI-18 wild-type PA-7
[12] = Escherichia coli EC-1 VOGEL, mouse virulent

Row | SMILES | KP-3700 MIC [1] | IC50 [5, 8] [nM] | MIC ([2]; Table 3, read-out: AB-3167 MIC) [µg/mL] | MIC ([3]; Table 3, read-out: PA-7 MIC) [µg/mL] | MIC ([4]; read-out: EC-1 MIC) [µg/mL] | IC50 [5, 9] [nM] | AB-3167 MIC [2, 10] | PA-7 MIC [3, 11] [µg/mL] | EC-1 MIC [4, 12] [µg/mL] | other results
1 | C[C@@](CCc1ccc(-c2ccc(N)nc2)cc1)(C(=O)NO)S(C)(=O)=O [Example 204] | ≧64 mg/L | 18.2 | – | – | – | – | – | – | – | AB-3167 MIC [2, 6]: ≧64 mg/L; PA-7 MIC [3, 7]: 8 µg/mL; EC-1 MIC ([4]; Escherichia coli EC-1): ≧64 mg/L
2 | Cc1cccc(Cc2noc(COc3ccc(CCC(C)(C(=O)NO)S(C)(=O)=O)cc3)n2)c1 (stereo not shown) [Example 289, N-hydroxy-2-methyl-4-(4-{[3-(3-methylbenzyl)-1,2,4-oxadiazol-5-yl]methoxy}phenyl)-2-(methylsulfonyl)butanamide] | ≧64 mg/L | – | ≥ 64 | ≥ 64 | 32 (≈ 67.6 µM) | 10.4 | – | – | – | –
3 | CC(Oc1ccc(CCC(C)(C(=O)NO)S(C)(=O)=O)cc1)c1ccccc1 (stereo not shown) [Example 282, N-hydroxy-2-methyl-2-(methylsulfonyl)-4-[4-(1-phenylethoxy)phenyl]butanamide] | ≧64 mg/L | – | 32 (≈ 81.7 µM) | ≥ 64 | 8 (≈ 20.4 µM) | 9.55 | – | – | – | –
4 | Cc1ccc(-c2ccc(CCC(C)(C(=O)NO)S(C)(=O)=O)cc2)cc1C (stereo not shown) [Example 83] | 4 µg/mL | 0.242 | – | – | – | – | 8 µg/mL | 2 | 1 | –
5 | CC(C)c1ccc(-c2noc(COc3ccc(CCC(C)(C(=O)NO)S(C)(=O)=O)cc3)n2)cc1 (stereo not shown) [Example 299, N-hydroxy-4-(4-{[3-(4-isopropylphenyl)-1,2,4-oxadiazol-5-yl]methoxy}phenyl)-2-methyl-2-(methylsulfonyl)butanamide] | ≧64 mg/L | – | ≥ 64 | ≥ 64 | 16 (≈ 32.8 µM) | 3.93 | – | – | – | –
6 | Cc1ccccc1COc1ccc(CCC(C)(C(=O)NO)S(C)(=O)=O)cc1 (stereo not shown) [Example 260, N-hydroxy-2-methyl-4-{4-[(2-methylbenzyl)oxy]phenyl}-2-(methylsulfonyl)butanamide] | ≧64 mg/L | – | 32 (≈ 81.7 µM) | 8 (≈ 20.4 µM) | 16 (≈ 40.9 µM) | 1.45 | – | – | – | –
7 | Cc1cccc(-c2nc(COc3ccc(CCC(C)(C(=O)NO)S(C)(=O)=O)cc3)c(C)o2)c1 (stereo not shown) [Example 278, N-hydroxy-2-methyl-4-(4-{[5-methyl-2-(3-methylphenyl)-1,3-oxazol-4-yl]methoxy}phenyl)-2-(methylsulfonyl)butanamide] | ≧64 mg/L | – | ≥ 64 | ≥ 64 | 32 (≈ 67.7 µM) | 10.4 | – | – | – | –
8 | CC(CCc1ccc(OCCCOc2ccccc2)cc1)(C(=O)NO)S(C)(=O)=O (stereo not shown) [Example 297, N-hydroxy-2-methyl-2-(methylsulfonyl)-4-[4-(3-phenoxypropoxy)phenyl]butanamide] | ≧64 mg/L | – | 32 (≈ 75.9 µM) | ≥ 64 | 16 (≈ 38 µM) | 42.5 | – | – | – | –
9 | CC(CCc1ccc(OCc2ccccc2C#N)cc1)(C(=O)NO)S(C)(=O)=O (stereo not shown) [Example 285, 4-{4-[(2-cyanobenzyl)oxy]phenyl}-N-hydroxy-2-methyl-2-(methylsulfonyl)butanamide] | ≧64 mg/L | – | ≥ 64 | 32 (≈ 79.5 µM) | 32 (≈ 79.5 µM) | 10 | – | – | – | –
10 | CCc1ccccc1COc1ccc(CCC(C)(C(=O)NO)S(C)(=O)=O)cc1 (stereo not shown) [Example 306, 4-{4-[(2-ethylbenzyl)oxy]phenyl}-N-hydroxy-2-methyl-2-(methylsulfonyl)butanamide] | 32 µg/mL | – | 16 (≈ 39.5 µM) | 16 (≈ 39.5 µM) | 8 (≈ 19.7 µM) | 0.813 | – | – | – | –
11 | CC(CCc1ccc(OCc2ccccc2F)cc1)(C(=O)NO)S(C)(=O)=O (stereo not shown) [Example 242, 4-{4-[(2-fluorobenzyl)oxy]phenyl}-N-hydroxy-2-methyl-2-(methylsulfonyl)butanamide] | 8 µg/mL | – | ≥ 64 | ≥ 64 | 4 (≈ 10.1 µM) | 0.655 | – | – | – | –
12 | C[C@@](CCc1ccc(-c2ccc(OCC(=O)N3CC(O)C3)cc2)cc1)(C(=O)NO)S(C)(=O)=O [Example 223] | 32 µg/mL | 0.507 | – | – | – | – | – | – | – | AB-3167 MIC [2, 6]: ≧64 mg/L; PA-7 MIC [3, 7]: 8 µg/mL; EC-1 MIC ([4]; Escherichia coli EC-1): 16 µg/mL
13 | CCCCCc1noc(COc2ccc(CCC(C)(C(=O)NO)S(C)(=O)=O)cc2)n1 (stereo not shown) [Example 295, N-hydroxy-2-methyl-2-(methylsulfonyl)-4-{4-[(3-pentyl-1,2,4-oxadiazol-5-yl)methoxy]phenyl}butanamide] | ≧64 mg/L | – | ≥ 64 | ≥ 64 | 32 (≈ 72.8 µM) | 12.5 | – | – | – | –
14 | CC(CCc1ccc(OCc2ccc(Cl)cc2F)cc1)(C(=O)NO)S(C)(=O)=O (stereo not shown) [Example 307, 4-{4-[(4-chloro-2-fluorobenzyl)oxy]phenyl}-N-hydroxy-2-methyl-2-(methylsulfonyl)butanamide] | 8 µg/mL | – | 16 (≈ 37.2 µM) | 4 (≈ 9.3 µM) | 2 (≈ 4.65 µM) | 0.393 | – | – | – | –
15 | CC(CCc1ccc(C2=CCSCC2)cc1)(C(=O)NO)S(C)(=O)=O (stereo not shown) [Example 226] | 8 µg/mL | 0.32 | – | – | – | – | – | – | – | AB-3167 MIC [2, 6]: 16 µg/mL; PA-7 MIC [3, 7]: 1 µg/mL; EC-1 MIC ([4]; Escherichia coli EC-1): 8 µg/mL
16 | C[C@@](CCc1ccc(-c2cc3ccccc3[nH]2)cc1)(C(=O)NO)S(C)(=O)=O [Example 218] | 2 µg/mL | 0.034 | – | – | – | – | – | – | – | AB-3167 MIC [2, 6]: 32 µg/mL; PA-7 MIC [3, 7]: 0.5 µg/mL; EC-1 MIC ([4]; Escherichia coli EC-1): 0.5 µg/mL
17 | CC(CCc1ccc(-c2ccc3c(c2)C(=O)NC3)c(F)c1)(C(=O)NO)S(C)(=O)=O (stereo not shown) [Example 203] | 32 µg/mL | 0.659 | – | – | – | – | – | – | – | AB-3167 MIC [2, 6]: ≧64 mg/L; PA-7 MIC [3, 7]: 4 µg/mL; EC-1 MIC ([4]; Escherichia coli EC-1): 8 µg/mL
18 | Cc1cc(C#N)ccc1-c1ccc(CCC(C)(C(=O)NO)S(C)(=O)=O)cc1 (stereo not shown) [Example 91] | 8 µg/mL | 0.266 | – | – | – | – | 16 µg/mL | 2 | 2 | –
19 | CC(CCc1ccc(-c2ccc(CO)c(F)c2)cc1)(C(=O)NO)S(C)(=O)=O (stereo not shown) [Example 123] | 16 µg/mL | 0.491 | – | – | – | – | ≧64 mg/L | 1 | 16 | –
20 | CC(CCc1ccc(-c2ccc(CCO)cc2)cc1)(C(=O)NO)S(C)(=O)=O (stereo not shown) [Example 34] | 8 µg/mL | 0.331 | – | – | – | – | ≧64 mg/L | 4 | 4 | –
21 | CC(CCc1ccc(-c2ccc3ncccc3c2)c(F)c1)(C(=O)NO)S(C)(=O)=O (stereo not shown) [Example 195] | 4 µg/mL | 0.733 | – | – | – | – | 32 µg/mL | 2 | 1 | –
22 | C[C@@](CCc1ccc(-c2ccc(OCCCN3CCOCC3)cc2)cc1)(C(=O)NO)S(C)(=O)=O [Example 179] | 2 µg/mL | 0.172 | – | – | – | – | 2 µg/mL | 2 | 0.125 | –
23 | CC(=O)c1ccc(-c2ccc(CCC(C)(C(=O)NO)S(C)(=O)=O)c(F)c2)nc1 (stereo not shown) [Example 187] | 16 µg/mL | 0.632 | – | – | – | – | ≧64 mg/L | 4 | 16 | –
24 | Cc1cc(CCC(C)(C(=O)NO)S(C)(=O)=O)ccc1-c1ccc(F)cc1 (stereo not shown) [Example 160] | 8 µg/mL | 2.54 | – | – | – | – | 16 µg/mL | 4 | 2 | –
25 | Cc1oc(-c2cccc(F)c2)nc1COc1ccc(CCC(C)(C(=O)NO)S(C)(=O)=O)cc1 (stereo not shown) [Example 302, 4-(4-{[2-(3-fluorophenyl)-5-methyl-1,3-oxazol-4-yl]methoxy}phenyl)-N-hydroxy-2-methyl-2-(methylsulfonyl)butanamide] | ≧64 mg/L | – | ≥ 64 | ≥ 64 | 16 (≈ 33.6 µM) | 12.5 | – | – | – | –
26 | CC(CCc1ccc(Sc2ccccc2)cc1)(C(=O)NO)S(C)(=O)=O (stereo not shown) [Example 12, N-Hydroxy-2-methyl-2-(methylsulfonyl)-4-[4-(phenylthio)phenyl]butanamide] | 32 µg/mL | – | – | – | – | – | – | – | – | MIC ([2]; Table 1, MIC, read-out: AB-3167 (MIC)): 8 µg/mL (≈ 21.1 µM); MIC ([3]; Table 1, MIC, read-out: PA-7 (MIC)): 8 µg/mL (≈ 21.1 µM); MIC ([4]; read-out: EC-1: (MIC)): 8 µg/mL (≈ 21.1 µM); IC50 ([5]; Table 1, read-out: PA LpxC enzyeme IC50): 11.9 nM
